In US4988687A, “Cephalosporin derivatives, and antibacterial agents” (priority 1986, dated 1991):
Read-outs that look alike come from different tables or passages of the source.

Legend:
A. calcoaceticus No. 4 = experiment: agar plate dilution method, MIC against A. calcoaceticus No. 4; type: cell-based; conditions: Acinetobacter calcoaceticus; A. calcoaceticus No. 4; 10^6 CFU/ml, 37° C., 16 hours; read-out: Minimum Inhibitory Concentration (MIC)
Experimental: (§1) The in vitro antibacterial activities of the compounds of the present invention against various microorganisms, were measured by the following agar plate dilution method. One platinum loopfull of each test microorganism incubated overnight in Mueller Hinton broth, was inoculated to Mueller Hinton agar (inoculum size: 10^6 CFU/ml) Such culture media containing various antibiotics in various concentrations were prepared After incubation at 37° C. for 16 hours, the minimum inhibitory concentrations (MIC: μg/ml) were measured. As comparative compounds, cefotaxime, oeftazidime and the compounds disclosed in Example 2 of Japanese Unexamined Patent Publication No. 215690/1985 e.g. sodium 7-[2-(2-aminothiazol-4-yl)-2-ethoxyiminoacetamido]-3-(1-carboxylatemethylpyridinio-4-yl)thiomethyl-3-cephem-4-carboxylate (hereinafter referred to simply as "Reference Example A") were employed.

S. marcescens No. 16-2 = experiment: agar plate dilution method, MIC against S. marcescens No. 16-2; type: cell-based; conditions: Serratia marcescens, NO.162, 16 h, read-out: Minimum Inhibitory Concentration (MIC)
Experimental: as §1

C. freundii GN346/16 = experiment: agar plate dilution method, MIC against C. freundii GN346/16; type: cell-based; conditions: Citrobacter freundii; C. freundii GN346/16; 10^6 CFU/ml, 37° C., 16 hours; read-out: Minimum Inhibitory Concentration (MIC)
Experimental: as §1

K. pneumoniae PCI-602 = experiment: agar plate dilution method, MIC against K. pneumoniae PCI-602; type: cell-based; conditions: Klebsiella pneumoniae, read-out: Minimum Inhibitory Concentration (MIC)
Experimental: as §1

M. luteus ATCC9341 = experiment: agar plate dilution method, MIC against M. luteus ATCC9341; type: cell-based; conditions: Micrococcus luteus, read-out: Minimum Inhibitory Concentration (MIC)
Experimental: as §1

E. cloacae Nek 39 = experiment: agar plate dilution method, MIC against E. cloacae Nek 39; type: cell-based; conditions: Enterobacter cloacae, NEK39; E. cloacae Nek 39 (lactamase-producing strain); 10^6 CFU/ml, 37° C., 16 hours; read-out: Minimum Inhibitory Concentration (MIC)
Experimental: as §1

S. marcescens IAM 1184 = experiment: agar plate dilution method, MIC against S. marcescens IAM 1184; type: cell-based; conditions: Serratia marcescens, read-out: Minimum Inhibitory Concentration (MIC)
Experimental: as §1

S. epidermidis IAM12012 = experiment: agar plate dilution method, MIC against S. epidermidis IAM12012; type: cell-based; conditions: Staphylococcus epidermidis; S. epidermidis IAM12012; 10^6 CFU/ml, 37° C., 16 hours; read-out: Minimum Inhibitory Concentration (MIC)
Experimental: as §1

E. coli CSH(RE45) = experiment: agar plate dilution method, MIC against E. coli CSH(RE45); type: cell-based; conditions: Escherichia coli, 16 h, read-out: Minimum Inhibitory Concentration (MIC)
Experimental: as §1

E. coli GN5482 = experiment: agar plate dilution method, MIC against E. coli GN5482; type: cell-based; conditions: Escherichia coli; E. coli GN5482 (lactamase-producing strain); 10^6 CFU/ml, 37° C., 16 hours; read-out: Minimum Inhibitory Concentration (MIC)
Experimental: as §1

S. aureus 209P NIHJ-JC1 = experiment: agar plate dilution method, MIC against S. aureus 209P NIHJ-JC1; type: cell-based; conditions: Staphylococcus aureus; S. aureus 209P NIHJ-JC1; 10^6 CFU/ml, Mueller Hinton agar, 37° C., 16 hours; read-out: Minimum Inhibitory Concentration (MIC)
Experimental: as §1

K. pneumoniae No. 42 = experiment: agar plate dilution method, MIC against K. pneumoniae No. 42; type: cell-based; conditions: Klebsiella pneumoniae; K. pneumoniae No. 42 (lactamase-producing strain); 10^6 CFU/ml, 37° C., 16 hours; read-out: Minimum Inhibitory Concentration (MIC)
Experimental: as §1

E. coli NIHJ JC2 = experiment: agar plate dilution method, MIC against E. coli NIHJ JC2; type: cell-based; conditions: Escherichia coli, read-out: Minimum Inhibitory Concentration (MIC)
Experimental: as §1

Ps. cepacia 23 = experiment: agar plate dilution method, MIC against Ps. cepacia 23; type: cell-based, Pseudomonas cepacia; conditions: Burkholderia cepacia, 23, 16 h, read-out: Minimum Inhibitory Concentration (MIC)
Experimental: as §1

Ps. maltophilia GN 12873 = experiment: agar plate dilution method, MIC against Ps. maltophilia GN 12873; type: cell-based, Pseudomonas maltophilia; conditions: Stenotrophomonas maltophilia, GN12873; Ps. maltophilia GN 12873 (lactamase-producing strain); 10^6 CFU/ml, 37° C., 16 hours; read-out: Minimum Inhibitory Concentration (MIC)
Experimental: as §1

E. cloacae 963 = experiment: agar plate dilution method, MIC against E. cloacae 963; type: cell-based; conditions: read-out: Minimum Inhibitory Concentration (MIC)
Experimental: as §1

E. coli CSH2 (RK1) = experiment: agar plate dilution method, MIC against E. coli CSH2 (RK1); type: cell-based; conditions: Escherichia coli, 16 h, read-out: Minimum Inhibitory Concentration (MIC)
Experimental: as §1

P. vulgaris No. 33 = experiment: agar plate dilution method, MIC against P. vulgaris No. 33; type: cell-based; conditions: Proteus vulgaris; P. vulgaris No. 33 (lactamase-producing strain); 10^6 CFU/ml, 37° C., 16 hours; read-out: Minimum Inhibitory Concentration (MIC)
Experimental: as §1

S. aureus JS1 = experiment: agar plate dilution method, MIC against S. aureus JS1; type: cell-based; conditions: Staphylococcus aureus; S. aureus JS1 (methicilline resistant; lactamase-producing strain); 10^6 CFU/ml, 37° C., 16 hours; read-out: Minimum Inhibitory Concentration (MIC)
Experimental: as §1

Ps. aeruginosa AK 109 = experiment: agar plate dilution method, MIC against Ps. aeruginosa AK 109; type: cell-based; conditions: Pseudomonas aeruginosa, read-out: Minimum Inhibitory Concentration (MIC)
Experimental: as §1

Ps. aeruginosa IFO3445 = experiment: agar plate dilution method, MIC against Ps. aeruginosa IFO3445; type: cell-based; conditions: Pseudomonas aeruginosa, read-out: Minimum Inhibitory Concentration (MIC)
Experimental: as §1

K. oxytoca GN10650 = experiment: agar plate dilution method, MIC against K. oxytoca GN10650; type: cell-based; conditions: Klebsiella oxytoca; K. oxytoca GN10650 (lactamase-producing strain); 10^6 CFU/ml, 37° C., 16 hours; read-out: Minimum Inhibitory Concentration (MIC)
Experimental: as §1

M. morganii GN5407 = experiment: agar plate dilution method, MIC against M. morganii GN5407; type: cell-based; conditions: Morganella morganii; M. morganii GN5407 (lactamase-producing strain); 10^6 CFU/ml, 37° C., 16 hours; read-out: Minimum Inhibitory Concentration (MIC)
Experimental: as §1

Ps. aeruginosa AKR17 = experiment: agar plate dilution method, MIC against Ps. aeruginosa AKR17; type: cell-based; conditions: Pseudomonas aeruginosa; Ps. aeruginosa AKR17; 10^6 CFU/ml, 37° C., 16 hours; read-out: Minimum Inhibitory Concentration (MIC)
Experimental: as §1

P. vulgaris HX-19 = experiment: agar plate dilution method, MIC against P. vulgaris HX-19; type: cell-based; conditions: Proteus vulgaris, HX19, 16 h, read-out: Minimum Inhibitory Concentration (MIC)
Experimental: as §1

C. freundii GN346 = experiment: agar plate dilution method, MIC against C. freundii GN346; type: cell-based; conditions: Citrobacter freundii; C. freundii GN346 (lactamase-producing strain); 10^6 CFU/ml, 37° C., 16 hours; read-out: Minimum Inhibitory Concentration (MIC)
Experimental: as §1

S. aureus BB5703 = experiment: agar plate dilution method, MIC against S. aureus BB5703; type: cell-based; conditions: Staphylococcus aureus, BB5703, 16 h, read-out: Minimum Inhibitory Concentration (MIC)
Experimental: as §1

SMILES | MIC (A. calcoaceticus No. 4) | MIC (S. marcescens No. 16-2) | MIC (C. freundii GN346/16) | MIC (E. cloacae Nek 39) | MIC (S. epidermidis IAM12012) | MIC (E. coli CSH(RE45)) | MIC (E. coli GN5482) | MIC (S. aureus 209P NIHJ-JC1) | MIC (K. pneumoniae No. 42) | MIC (Ps. cepacia 23) | MIC (Ps. maltophilia GN 12873) | MIC (E. coli CSH2 (RK1)) | MIC (P. vulgaris No. 33) | MIC (S. aureus JS1) | MIC (K. oxytoca GN10650) | MIC (M. morganii GN5407) | MIC (Ps. aeruginosa AKR17) | MIC (P. vulgaris HX-19) | MIC (C. freundii GN346) | MIC (S. aureus BB5703) | further results
Nc1nc(/C(=N/OCc2ccccc2)C(=O)NC2C(=O)N3C(C(=O)[O-])=C(CSc4cc[n+](CC(=O)O)cc4)CSC23)cs1 (stereo not drawn) [Example 2, monosodium 7-[2-(2-aminithiazol-4-yl)-2-benzyloxyiminoacetamide]-3-(1-caboxylatemethylpyridinio-4-yl)thiomethyl-3-cephem-4-carboxylate (syn-isomer)] | 25 µg/mL | 12.5 µg/mL | 0.78 µg/mL | 6.25 µg/mL | 0.2 µg/mL | 0.2 µg/mL | 0.78 µg/mL | 0.39 µg/mL | 1.56 µg/mL | 12.5 µg/mL | > 100 µg/mL | 0.2 µg/mL | 1.56 µg/mL | 50 µg/mL | 12.5 µg/mL | 1.56 µg/mL | > 100 µg/mL | < 0.006 µg/mL | 25 µg/mL | 1.56 µg/mL | MIC (K. pneumoniae PCI-602; PCI602, K. pneumoniae PCI-602, 10^6 CFU/ml, 37° C., 16 hours): 0.0125 µg/mL; MIC (M. luteus ATCC9341; ATCC9341, 16 h): 0.025 µg/mL; MIC (S. marcescens IAM 1184; IAM1184, 16 h): 1.56 µg/mL; MIC (E. coli NIHJ JC2; NIHJJC2, 16 h): 1.56 µg/mL; MIC (E. cloacae 963; Enterobacter cloacae, 963, 16 h): 1.56 µg/mL; MIC (Ps. aeruginosa AK 109; AK109, Ps. aeruginosa AK 109, 10^6 CFU/ml, 37° C., 16 hours): 25 µg/mL; MIC (Ps. aeruginosa IFO3445; Ps. aeruginosa IFO3445, 10^6 CFU/ml, 37° C., 16 hours): 25 µg/mL
CCON=C(C(=O)NC1C(=O)N2C(C(=O)[O-])=C(CSc3cc[n+](CC(=O)O)cc3)CSC12)c1csc(N)n1 (stereo not drawn) [Reference Example A, sodium 7-[2-(2-aminothiazol-4-yl)-2-ethoxyiminoacetamido]-3-(1-carboxylatemethylpyridinio-4-yl)thiomethyl-3-cephem-4-carboxylate, reference compound] | 100 µg/mL | 6.25 µg/mL | 0.1 µg/mL | 1.56 µg/mL | 0.05 µg/mL | 0.05 µg/mL | 0.2 µg/mL | 0.39 µg/mL | 0.05 µg/mL | 6.25 µg/mL | > 100 µg/mL | 0.025 µg/mL | 0.05 µg/mL | 100 µg/mL | 3.12 µg/mL | 0.05 µg/mL | > 100 µg/mL | < 0.006 µg/mL | 25 µg/mL | 3.12 µg/mL | MIC (K. pneumoniae PCI-602; PCI602, 16 h): < 0.006 µg/mL; MIC (M. luteus ATCC9341; M. luteus ATCC9341, 10^6 CFU/ml, 37° C., 16 hours): 0.1 µg/mL; MIC (S. marcescens IAM 1184; IAM1184, S. marcescens IAM 1184, 10^6 CFU/ml, 37° C., 16 hours): 0.05 µg/mL; MIC (E. coli NIHJ JC2; NIHJJC2, E. coli NIHJ JC2, 10^6 CFU/ml, 37° C., 16 hours): 0.05 µg/mL; MIC (E. cloacae 963; Enterobacter cloacae, E. cloacae 963, 10^6 CFU/ml, 37° C., 16 hours): 0.1 µg/mL; MIC (Ps. aeruginosa AK 109; AK109, 16 h): 12.5 µg/mL; MIC (Ps. aeruginosa IFO3445; IFO3445, 16 h): 6.25 µg/mL
